≈ marks a conversion by molar mass, not a printed value. Where a name gives a salt, the structure may show the parent alone. Each block holds one molecule with its values, some of them ahead of it.
Tests used:
human colorectal tumors = test: Human colon tumor histioculture, inhibition of cell proliferation; type: cell-based; conditions: concentration inhibiting by 50% the incorporation of [H]thymidine into DNA, tumors exposed to compounds for 24 hours, then thymidine for 3 days
Source text: As used herein, the term "cancer" is synonymous with the terms "malignant tumor" and more generally "tumor". […] See H.L. Davis, Chemotherapy of Large Bowel Cancer, Cancer (Phila.) 50: 2638-2646 (1982); J.R. Neefe and P.S. Schein, Chapter 43: The Management of Disseminated Large-Bowel Cancer in Principals of Cancer Treatment, page 402, ed. S.K. Carter, E. Glatstein and R.B. Livingston, McGraw-Hill Co., 1982; K. Mekhail-Ishak, Cancer Research, 49: 4866-4869 (1989) and P.J. Ferguson and Y.C. Cheng, Cancer Research, 49: 1148-1153 (1989).
Inhibition of tumor cell proliferation was performed in vitro on human colorectal tumors obtained from surgery or biopsy, as described by Vescio et al (Proc. Nat'l. Acad. Sci. USA 84:5029-5033, 1987) with the following modifications: Tumors were cultured 1 day prior to drug addition; tumors were exposed to compounds for 24 hours, washed, and then exposed to ^3[H]thymidine for 3 days.

[1] = Wani et al., J. Med. Chem.; cited from earlier work
L-1210 leukemia = L-1210 leukemia in vivo life prolongation assay; parameters: species or system mice
Source text: (§1) 10,11-MDO-20(S)-CPT is also very potent in the L-1210 leukemia in vivo life prolongation assay. The synthesis of […] is known and described in Wani et al, J. Med. Chem., 29 (11), 2358-2363 (1986) and in U.S. 4,894,456.

9KB = test: In vitro cytotoxicity test 9KB; type: cell-based; conditions: 9KB test, compared with camptothecin
Source text: as §1

9PS = test: In vitro cytotoxicity test 9PS; type: cell-based; conditions: 9PS test, compared with camptothecin
Source text: as §1

topoisomerase I = topoisomerase I (Bos taurus, UniProt A0AAA9TV68); conditions: relative to camptothecin; cited from earlier work
topoisomerase I, sequence (A0AAA9TV68 entry or part of it): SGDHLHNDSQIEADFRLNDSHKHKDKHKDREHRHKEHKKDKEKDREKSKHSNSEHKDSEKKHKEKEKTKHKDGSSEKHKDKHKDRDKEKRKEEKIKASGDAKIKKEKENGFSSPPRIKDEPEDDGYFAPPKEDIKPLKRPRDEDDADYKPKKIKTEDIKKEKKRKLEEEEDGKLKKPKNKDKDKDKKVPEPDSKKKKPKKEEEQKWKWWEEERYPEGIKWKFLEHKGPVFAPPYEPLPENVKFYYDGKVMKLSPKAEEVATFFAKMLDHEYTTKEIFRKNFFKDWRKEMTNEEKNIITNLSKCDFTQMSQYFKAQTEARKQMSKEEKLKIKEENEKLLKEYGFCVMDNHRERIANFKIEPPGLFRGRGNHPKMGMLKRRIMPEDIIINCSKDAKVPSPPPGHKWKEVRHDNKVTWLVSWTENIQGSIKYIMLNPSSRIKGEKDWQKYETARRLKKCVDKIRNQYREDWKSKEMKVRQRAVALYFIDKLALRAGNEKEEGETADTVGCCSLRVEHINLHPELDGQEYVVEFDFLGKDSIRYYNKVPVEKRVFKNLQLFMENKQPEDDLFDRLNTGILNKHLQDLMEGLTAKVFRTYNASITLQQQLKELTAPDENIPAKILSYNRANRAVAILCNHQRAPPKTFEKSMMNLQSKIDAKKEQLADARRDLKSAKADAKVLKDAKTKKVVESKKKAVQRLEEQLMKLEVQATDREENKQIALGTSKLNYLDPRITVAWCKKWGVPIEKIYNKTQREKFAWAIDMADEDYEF

IC50 (human colorectal tumors): ~10 ng/mL
Compound: CCC(O)(C(=O)O)c1cc2n(c(=O)c1CO)Cc1cc3cc4c(cc3nc1-2)OCO4 (racemic) [Compound 8, 10,11-MDO-20(RS)-CPT, Na^+ SALT]

Compound: CCC1(O)C(=O)OCc2c1cc1n(c2=O)Cc2cc3cc(OC)c(OC)cc3nc2-1 (racemic) [10,11-dimethoxy-20(RS)-CPT]
activity [1]: totally inactive

Compound: CC[C@@]1(O)C(=O)OCc2c1cc1n(c2=O)Cc2cc3cc4c(cc3nc2-1)OCO4 [Compound 2, 10,11-MDO-20(S)-CPT]
life prolongation (L-1210 leukemia): very potent | ED50 (9KB): equal to or more potent than camptothecin itself | ED50 (9PS): equal to or more potent than camptothecin itself

Compound: CCC1(O)C(=O)OCc2c1cc1n(c2=O)Cc2cc3c(N)c4c(cc3nc2-1)OCO4 (racemic) [Compound 4, 9-AMINO-10,11-MDO-20(RS)-CPT]
IC50 (human colorectal tumors): ~5 ng/mL (≈ 0.0123 µM)

Compound: CCC1(O)C(=O)OCc2c1cc1n(c2=O)Cc2cc3cc4c(cc3nc2-1)OCO4 (racemic) [Compound 3, 10,11-MDO-20(RS)-CPT]
IC50 (human colorectal tumors): ~5 ng/mL (≈ 0.0127 µM) | potency in the inhibition of topoisomerase I (topoisomerase I): three to five times the potency of camptothecin

Source: patent EP0418099B1, “Process of preparation of 10, 11-Methylenedioxy-20 (RS) camptothecin and 10, 11-methylenedioxy-20 (S) - camptothecin analog” (RESEARCH TRIANGLE INSTITUTE, priority 1989, dated 1991)
